Calls of active or inactive are those of the source. The rule behind the calls is not given here.
Legend:
Mus musculus [1] = test: Neurotoxicity in albino CF1 mouse at 100 mg/kg, ip measured after 0.25 hr; format: toxicity, organism-based; parameters: dose 100 mg/kg, route intraperitoneal; conditions: in vivo
Mus musculus [2] = test: Neurotoxicity in albino CF1 mouse at 100 mg/kg, ip measured after 4 hrs; format: toxicity, organism-based; parameters: dose 100 mg/kg, route intraperitoneal; conditions: in vivo
Rattus norvegicus [3] = test: Neurotoxicity in MES Sprague-Dawley rat model at 30 mg/kg, po measured after 1 hr; format: toxicity, organism-based; parameters: dose 30 mg/kg, route oral; conditions: in vivo
Rattus norvegicus [4] = test: Anticonvulsant activity in Sprague-Dawley rat assessed as protection against maximal electroshock-induced seizures at 30 mg/kg, po measured after 0.5 hr; format: functional, organism-based; parameters: dose 30 mg/kg
Mus musculus [5] = test: Anticonvulsant activity in albino CF1 mouse assessed as protection against maximal electroshock-induced seizures at 100 mg/kg, ip measured after 0.5 hr; format: functional, organism-based; parameters: dose 100 mg/kg
Mus musculus [6] = test: Anticonvulsant activity in albino CF1 mouse assessed as protection against 32 mA current-induced seizures at 100 mg/kg, ip measured after 1 hr; format: functional, organism-based; parameters: dose 100 mg/kg
Rattus norvegicus [7] = test: Anticonvulsant activity in Sprague-Dawley rat assessed as protection against maximal electroshock-induced seizures at 30 mg/kg, po measured after 4 hrs; format: functional, organism-based; parameters: dose 30 mg/kg
Rattus norvegicus [8] = test: Anticonvulsant activity in Sprague-Dawley rat assessed as protection against maximal electroshock-induced seizures at 30 mg/kg, po measured after 0.25 hr; format: functional, organism-based; parameters: dose 30 mg/kg
Rattus norvegicus [9] = test: Anticonvulsant activity in Sprague-Dawley rat assessed as protection against maximal electroshock-induced seizures at 30 mg/kg, po measured after 2 hrs; format: functional, organism-based; parameters: dose 30 mg/kg
Mus musculus [10] = test: Neurotoxicity in 32 mA current-induced seizure albino CF1 mouse model at 100 mg/kg, ip measured after 0.25 hr; format: toxicity, organism-based; parameters: dose 100 mg/kg, route intraperitoneal; conditions: in vivo
Mus musculus [11] = test: Neurotoxicity in 32 mA current-induced seizure albino CF1 mouse model at 100 mg/kg, ip measured after 1 hr; format: toxicity, organism-based; parameters: dose 100 mg/kg, route intraperitoneal; conditions: in vivo
Rattus norvegicus [12] = test: Neurotoxicity in MES Sprague-Dawley rat model at 30 mg/kg, po measured after 4 hrs; format: toxicity, organism-based; parameters: dose 30 mg/kg, route oral; conditions: in vivo
Mus musculus [13] = test: Neurotoxicity in albino CF1 mouse at 100 mg/kg, ip measured after 0.5 hr; format: toxicity, organism-based; parameters: dose 100 mg/kg, route intraperitoneal; conditions: in vivo
Mus musculus [14] = test: Anticonvulsant activity in albino CF1 mouse assessed as protection against 32 mA current-induced seizures at 100 mg/kg, ip measured after 0.5 hr; format: functional, organism-based; parameters: dose 100 mg/kg
Rattus norvegicus [15] = test: Neurotoxicity in MES Sprague-Dawley rat model at 30 mg/kg, po measured after 0.5 hr; format: toxicity, organism-based; parameters: dose 30 mg/kg, route oral; conditions: in vivo
Rattus norvegicus [16] = test: Anticonvulsant activity in Sprague-Dawley rat assessed as protection against maximal electroshock-induced seizures at 30 mg/kg, po measured after 1 hr; format: functional, organism-based; parameters: dose 30 mg/kg
Mus musculus [17] = test: Anticonvulsant activity in albino CF1 mouse assessed as protection against maximal electroshock-induced seizures at 100 mg/kg, ip measured after 0.25 hr; format: functional, organism-based; parameters: dose 100 mg/kg
Rattus norvegicus [18] = test: Neurotoxicity in MES Sprague-Dawley rat model at 30 mg/kg, po measured after 2 hrs; format: toxicity, organism-based; parameters: dose 30 mg/kg, route oral; conditions: in vivo
Mus musculus [19] = test: Anticonvulsant activity in albino CF1 mouse assessed as protection against subcutaneous metrazol-induced seizures at 100 mg/kg, ip measured after 0.25 hr; format: functional, organism-based; parameters: dose 100 mg/kg
Mus musculus [20] = test: Anticonvulsant activity in albino CF1 mouse assessed as protection against 32 mA current-induced seizures at 100 mg/kg, ip measured after 2 hrs; format: functional, organism-based; parameters: dose 100 mg/kg
Mus musculus [21] = test: Neurotoxicity in albino CF1 mouse at 100 mg/kg, ip measured after 1 hr; format: toxicity, organism-based; parameters: dose 100 mg/kg, route intraperitoneal; conditions: in vivo
Mus musculus [22] = test: Anticonvulsant activity in albino CF1 mouse assessed as protection against 32 mA current-induced seizures at 100 mg/kg, ip measured after 4 hrs; format: functional, organism-based; parameters: dose 100 mg/kg
Rattus norvegicus [23] = test: Neurotoxicity in MES Sprague-Dawley rat model at 30 mg/kg, po measured after 0.25 hr; format: toxicity, organism-based; parameters: dose 30 mg/kg, route oral; conditions: in vivo
Mus musculus [24] = test: Anticonvulsant activity in albino CF1 mouse assessed as protection against maximal electroshock-induced seizures at 100 mg/kg, ip measured after 4 hrs; format: functional, organism-based; parameters: dose 100 mg/kg
Mus musculus [25] = test: Anticonvulsant activity in albino CF1 mouse assessed as protection against subcutaneous metrazol-induced seizures at 100 mg/kg, ip measured after 4 hrs; format: functional, organism-based; parameters: dose 100 mg/kg
Mus musculus [26] = test: Neurotoxicity in 32 mA current-induced seizure albino CF1 mouse model at 100 mg/kg, ip measured after 0.5 hr; format: toxicity, organism-based; parameters: dose 100 mg/kg, route intraperitoneal; conditions: in vivo
Mus musculus [27] = test: Anticonvulsant activity in albino CF1 mouse assessed as protection against 32 mA current-induced seizures at 100 mg/kg, ip measured after 0.25 hr; format: functional, organism-based; parameters: dose 100 mg/kg
Mus musculus [28] = test: Anticonvulsant activity in albino CF1 mouse assessed as protection against subcutaneous metrazol-induced seizures at 100 mg/kg, ip measured after 1 hr; format: functional, organism-based; parameters: dose 100 mg/kg
Mus musculus [29] = test: Neurotoxicity in 32 mA current-induced seizure albino CF1 mouse model at 100 mg/kg, ip measured after 4 hrs; format: toxicity, organism-based; parameters: dose 100 mg/kg, route intraperitoneal; conditions: in vivo
Mus musculus [30] = test: Anticonvulsant activity in albino CF1 mouse assessed as protection against subcutaneous metrazol-induced seizures at 100 mg/kg, ip measured after 0.5 hr; format: functional, organism-based; parameters: dose 100 mg/kg
Mus musculus [31] = test: Neurotoxicity in 32 mA current-induced seizure albino CF1 mouse model at 100 mg/kg, ip measured after 2 hrs; format: toxicity, organism-based; parameters: dose 100 mg/kg, route intraperitoneal; conditions: in vivo
Mus musculus [32] = test: Anticonvulsant activity in albino CF1 mouse assessed as protection against maximal electroshock-induced seizures at 100 mg/kg, ip measured after 1 hr; format: functional, organism-based; parameters: dose 100 mg/kg
Rattus norvegicus [33] = test: Anticonvulsant activity in Sprague-Dawley rat assessed as protection against maximal electroshock-induced seizures at 30 mg/kg, ip measured after 1 hr; format: functional, organism-based; parameters: dose 30 mg/kg
Rattus norvegicus [34] = test: Anticonvulsant activity in Sprague-Dawley rat assessed as protection against maximal electroshock-induced seizures at 30 mg/kg, ip measured after 0.5 hr; format: functional, organism-based; parameters: dose 30 mg/kg
Rattus norvegicus [35] = test: Neurotoxicity in MES Sprague-Dawley rat model at 30 mg/kg, ip measured after 0.5 hr; format: toxicity, organism-based; parameters: dose 30 mg/kg, route intraperitoneal; conditions: in vivo
Rattus norvegicus [36] = test: Anticonvulsant activity in Sprague-Dawley rat assessed as protection against maximal electroshock-induced seizures at 30 mg/kg, ip measured after 2 hrs; format: functional, organism-based; parameters: dose 30 mg/kg
Rattus norvegicus [37] = test: Neurotoxicity in MES Sprague-Dawley rat model at 30 mg/kg, ip measured after 4 hrs; format: toxicity, organism-based; parameters: dose 30 mg/kg, route intraperitoneal; conditions: in vivo
Rattus norvegicus [38] = test: Neurotoxicity in MES Sprague-Dawley rat model at 30 mg/kg, ip measured after 0.25 hr; format: toxicity, organism-based; parameters: dose 30 mg/kg, route intraperitoneal; conditions: in vivo
Rattus norvegicus [39] = test: Neurotoxicity in MES Sprague-Dawley rat model at 30 mg/kg, ip measured after 1 hr; format: toxicity, organism-based; parameters: dose 30 mg/kg, route intraperitoneal; conditions: in vivo
Rattus norvegicus [40] = test: Anticonvulsant activity in Sprague-Dawley rat assessed as protection against maximal electroshock-induced seizures at 30 mg/kg, ip measured after 0.25 hr; format: functional, organism-based; parameters: dose 30 mg/kg
Rattus norvegicus [41] = test: Anticonvulsant activity in Sprague-Dawley rat assessed as protection against maximal electroshock-induced seizures at 30 mg/kg, ip measured after 4 hrs; format: functional, organism-based; parameters: dose 30 mg/kg
Rattus norvegicus [42] = test: Neurotoxicity in MES Sprague-Dawley rat model at 30 mg/kg, ip measured after 2 hrs; format: toxicity, organism-based; parameters: dose 30 mg/kg, route intraperitoneal; conditions: in vivo

Structure (SMILES)	Activity (Mus musculus [2])	Activity (Rattus norvegicus [3])	Activity (Rattus norvegicus [4])	Activity (Mus musculus [5])	Activity (Rattus norvegicus [7])	Activity (Rattus norvegicus [8])	Activity (Rattus norvegicus [9])	Activity (Rattus norvegicus [12])	Activity (Mus musculus [13])	Activity (Mus musculus [14])	Activity (Rattus norvegicus [15])	Activity (Rattus norvegicus [16])	Activity (Rattus norvegicus [18])	Activity (Mus musculus [20])	Activity (Rattus norvegicus [23])	Activity (Mus musculus [24])	Activity (Mus musculus [26])	Activity (Mus musculus [31])	other results
O=C1NC(=O)[C@@H]2CCCN2[C@H]1c1cccc(F)c1	Non-toxic	Non-toxic	inactive	Active	inactive	inactive	inactive	Non-toxic	Non-toxic	Active	Non-toxic	inactive	Non-toxic	inactive	Non-toxic	inactive	Non-toxic	Non-toxic	Activity (Mus musculus [1]): Non-toxic; Activity (Mus musculus [6]): inactive; Activity (Mus musculus [10]): Non-toxic; Activity (Mus musculus [11]): Non-toxic; Activity (Mus musculus [17]): Active; Activity (Mus musculus [19]): Active; Activity (Mus musculus [21]): Non-toxic; Activity (Mus musculus [22]): inactive; Activity (Mus musculus [25]): inactive; Activity (Mus musculus [27]): Active; Activity (Mus musculus [28]): inactive; Activity (Mus musculus [29]): Non-toxic; Activity (Mus musculus [30]): Active; Activity (Mus musculus [32]): inactive
Cl.O=C1NC(=O)[C@@H]2C[C@@H](O)CN2C1c1cccc(C(F)(F)F)c1 (mixture of isomers)	Non-toxic	Non-toxic	inactive	Active	inactive	inactive	inactive	Non-toxic	Toxic	Active	Non-toxic	inactive	Non-toxic	inactive	Non-toxic	inactive	Toxic	Non-toxic	Activity (Rattus norvegicus [33]): inactive; Activity (Rattus norvegicus [34]): inactive; Activity (Rattus norvegicus [35]): Non-toxic; Activity (Rattus norvegicus [36]): inactive; Activity (Rattus norvegicus [37]): Non-toxic; Activity (Rattus norvegicus [38]): Non-toxic; Activity (Rattus norvegicus [39]): Non-toxic; Activity (Rattus norvegicus [40]): inactive; Activity (Rattus norvegicus [41]): inactive; Activity (Rattus norvegicus [42]): Non-toxic
